# According to paper PMC11597089, “Kratom Alkaloids: A Blood–Brain Barrier Specific Membrane Permeability Assay-Guided Isolation and Cyclodextrin Complexation Study” (Molecules, 2024):
# Tests used:
# [1] = ACE complex stability, SBE-β-CD DS~10.4; format: physicochemical; settings: sulfobutyl-ether-β-CD DS~10.4, 30 mM phosphate buffer pH 7.4, 25 °C
# Description: (§1) To investigate the CD complexation behavior of the four kratom alkaloids, we aimed to develop an ACE method for a systematic comparative study. […] To ensure sufficient buffer capacity and to avoid excessive current and Joule heat generation, the buffer concentration was set to 30 mM, and the applied voltage was 15 kV.
# (§2) The ACE experiments were performed by using Agilent 7100 and HP^3DCE instruments (Agilent Technologies, Waldbronn, Germany). Untreated fused silica capillaries (total length of 48.5 cm, effective length of 40 cm, inner diameter of 50 μm) were purchased from Agilent Technologies. The new capillaries were conditioned with a 1 M NaOH wash for 1 h, followed by a 30 min wash each with 0.1 M NaOH and purified water. Prior to all runs, the capillary was preconditioned by rinsing with background electrolyte for 3 min. During the measurements, 30 mM phosphate buffer at pH 7.4 (30 mM Na2HPO4-NaOH) was used. The background electrolyte contained CDs at various concentrations. […] The electropherograms were recorded at four wavelengths (200 nm, 210 nm, 215 nm, and 220 nm), and the data were evaluated at 215 nm. […] The measurements were evaluated using Origin and CEval software (v. 0.6i3). […]
# [2] = ACE complex stability, S-β-CD; format: physicochemical; settings: sulfated-β-CD DS~13, 30 mM phosphate buffer pH 7.4, 25 °C
# Description: as §1, §2
# [3] = ACE complex stability, S-γ-CD; format: physicochemical; settings: sulfated-γ-CD DS~14, 30 mM phosphate buffer pH 7.4, 25 °C
# Description: as §1, §2
# [4] = phase-solubility study, β-CD; format: physicochemical; settings: 30 mM phosphate buffer pH 7.4, room temperature
# Description: (§3) Based on our ACE measurements, the promising CDs were selected for phase-solubility studies, along with the most widely used CD excipients, to investigate the effect of CD type and its concentration on mitragynine solubility. The experiments were conducted under conditions similar to those in the ACE measurements, applying 30 mM phosphate buffer (pH 7.4) and room temperature.
# (§4) UV spectra and chromatograms were recorded at 200–400 nm, and the chromatogram obtained at 226 nm was used for quantitative analyses.
# (§5) Solubility measurements were performed according to Higuchi and Connors. To each 1 mg mitragynine sample, the selected cyclodextrins were added. The final concentration of the CDs was in the range of 0–1 (m/v) %. Suspensions were shaken at room temperature for 24 h and filtered using 0.22 μm filters. The mitragynine concentration in the samples was determined by the above-described UHPLC-UV method. The solubility diagrams were constructed, and the stability constant (Kstab) and complexation efficacy (CE) were calculated using the following formulas:(5) Kstab=slope/S0(1−slope) (6) CE=slope/1−slope where S0 is the intrinsic solubility of a poorly soluble drug. The experiments were performed in a 30 mM phosphate buffer (pH 7.4).
# [5] = phase-solubility study, RAME-β-CD; format: physicochemical; settings: 30 mM phosphate buffer pH 7.4, room temperature
# Description: as §3, §4, §5
# [6] = phase-solubility study, HP-β-CD; format: physicochemical; settings: 30 mM phosphate buffer pH 7.4, room temperature
# Description: as §3, §4, §5
# [7] = phase-solubility study, CM-β-CD; format: physicochemical; settings: 30 mM phosphate buffer pH 7.4, room temperature
# Description: as §3, §4, §5
# [8] = phase-solubility study, Subetadex; format: physicochemical; settings: 30 mM phosphate buffer pH 7.4, room temperature; for complexation efficacy (CE) with Subetadex: phase solubility, calculated from the linear part of the isotherm
# Description: as §3
# In the case of Subetadex, which had the highest solubility enhancement, an AN-type isotherm could be observed with a negative deviation from linearity, indicating a complex process: either the host ratio inside the complex increased, the solvent–solute interactions altered, or both contributed simultaneously.
# as §4, §5
# [9] = phase-solubility study, Sugammadex; format: physicochemical; settings: 30 mM phosphate buffer pH 7.4, room temperature
# Description: as §3, §4, §5
# [10] = phase-solubility study, SBE-β-CD DS~6.5; format: physicochemical; settings: 30 mM phosphate buffer pH 7.4, room temperature
# Description: as §3, §4, §5
# [11] = phase-solubility study, SBE-β-CD DS~10.4; format: physicochemical; settings: 30 mM phosphate buffer pH 7.4, room temperature
# Description: as §3, §4, §5
# [12] = phase-solubility study, S-β-CD; format: physicochemical; settings: 30 mM phosphate buffer pH 7.4, room temperature
# Description: as §3, §4, §5
# [13] = set-up: method as in PMID 25793541; settings: at pH 7; cited from earlier work
# [14] = set-up: method as in PMID 25793541; settings: at neutral pH; cited from earlier work
# [15] = set-up: method as in PMID 24841968; settings: after 2 h; cited from earlier work
# [16] = set-up: method as in PMID 20454783; settings: rats, in words; cited from earlier work
# [17] = set-up: method as in PMID 28551311; settings: in vivo microdialysis technique, in words; cited from earlier work
compound,measurement,setting,value
"CC[C@H]1CN2CCc3c([nH]c4cccc(OC)c34)[C@@H]2C[C@@H]1/C(=C\OC)C(=O)OC [Speciogynine, speciogynine]",complex stability constant (Kstab) with SBE-β-CD DS~10.4,[1],"~10,000 M^−1"
same,complex stability constant (Kstab) with S-β-CD,[2],970 ± 80 M⁻¹
mitragynine,complex stability constant (Kstab) with S-γ-CD,[3],810 ± 75 M⁻¹
same,Kstab with β-CD (phase solubility),"[4]; 24 h, CD 0–1 (m/v) %",55 M⁻¹
same,complexation efficacy (CE) with β-CD,[4]; phase solubility,0.0021
same,Kstab with RAME-β-CD (phase solubility),"[5]; 24 h, CD 0–1 (m/v) %",60 M⁻¹
same,complexation efficacy (CE) with RAME-β-CD,[5]; phase solubility,0.0023
same,Kstab with HP-β-CD (phase solubility),"[6]; 24 h, CD 0–1 (m/v) %",30 M⁻¹
same,complexation efficacy (CE) with HP-β-CD,[6]; phase solubility,0.0011
same,Kstab with CM-β-CD (phase solubility),"[7]; 24 h, CD 0–1 (m/v) %",300 M⁻¹
same,complexation efficacy (CE) with CM-β-CD,[7]; phase solubility,0.0113
same,phase-solubility isotherm type with Subetadex,[8],AN-type
same,Kstab with Subetadex (phase solubility),"[8]; 24 h, CD 0–1 (m/v) %",1730 M⁻¹
same,complexation efficacy (CE) with Subetadex,[8],0.0650
same,complexation efficacy (CE) with Subetadex,[8]; listed as mitragynine,0.065
same,Kstab with Sugammadex (phase solubility),"[9]; 24 h, CD 0–1 (m/v) %",1150 M⁻¹
same,complexation efficacy (CE) with Sugammadex,[9]; phase solubility,0.0431
same,Kstab with SBE-β-CD DS~6.5 (phase solubility),"[10]; 24 h, CD 0–1 (m/v) %",480 M⁻¹
same,complexation efficacy (CE) with SBE-β-CD DS~6.5,[10]; phase solubility,0.0181
same,Kstab with SBE-β-CD DS~10.4 (phase solubility),"[11]; 24 h, CD 0–1 (m/v) %",1020 M⁻¹
same,complexation efficacy (CE) with SBE-β-CD DS~10.4,[11]; phase solubility,0.0382
same,Kstab with S-β-CD (phase solubility),"[12]; 24 h, CD 0–1 (m/v) %",340 M⁻¹
same,complexation efficacy (CE) with S-β-CD,[12]; phase solubility,0.0127
same,logD,[13],1.73
same,aqueous solubility,[14],88 µg/mL
same,degraded under acidic conditions,[15],more than 26%
same,oral bioavailability,[16],limited
same,blood–brain barrier permeability,[17],excellent
